Laboratory results reported in PubChem BioAssay (NCI).
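96-well plates; 48 h exposure; 5 concentrations. Endpoints by linear interpolation between flanking doses. Not reached: highest tested concentration assigned. TGI: concentration producing complete growth inhibition.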

Assays:
Assay in all cases: NCI tumour cell line growth inhibition, 48 h
MALME-3M melanoma = system: MALME-3M melanoma
MCF7 breast = system: MCF7 breast
HCT-15 colon = system: HCT-15 colon
BT-549 breast = system: BT-549 breast
A549 NSCLC = system: A549 NSCLC
UACC-257 melanoma = system: UACC-257 melanoma
SN12C renal = system: SN12C renal
COLO 205 colon = system: COLO 205 colon
SK-MEL-2 melanoma = system: SK-MEL-2 melanoma
HS 578T breast = system: HS 578T breast
EKVX NSCLC = system: EKVX NSCLC
U251 CNS = system: U251 CNS
M14 melanoma = system: M14 melanoma
HCT-116 colon = system: HCT-116 colon
MDA-MB-231 breast = system: MDA-MB-231 breast
KM12 colon = system: KM12 colon
SF-295 CNS = system: SF-295 CNS
OVCAR-5 ovarian = system: OVCAR-5 ovarian
HT29 colon = system: HT29 colon
SF-268 CNS = system: SF-268 CNS
TK-10 renal = system: TK-10 renal
SK-OV-3 ovarian = system: SK-OV-3 ovarian
OVCAR-4 ovarian = system: OVCAR-4 ovarian
SK-MEL-5 melanoma = system: SK-MEL-5 melanoma
UACC-62 melanoma = system: UACC-62 melanoma
RXF 393 renal = system: RXF 393 renal
MOLT-4 leukemia = system: MOLT-4 leukemia
SF-539 CNS = system: SF-539 CNS
NCI/ADR-RES ovarian = system: NCI/ADR-RES ovarian
786-0 renal = system: 786-0 renal
HOP-92 NSCLC = system: HOP-92 NSCLC
OVCAR-3 ovarian = system: OVCAR-3 ovarian
NCI-H226 lung = system: NCI-H226 lung
HCC-2998 colon = system: HCC-2998 colon
RPMI-8226 leukemia = system: RPMI-8226 leukemia
ACHN renal = system: ACHN renal
SW-620 colon = system: SW-620 colon
MDA-MB-435 = system: MDA-MB-435
NCI-H23 lung = system: NCI-H23 lung
NCI-H460 lung = system: NCI-H460 lung
A498 renal = system: A498 renal
UO-31 renal = system: UO-31 renal
K-562 leukemia = system: K-562 leukemia
PC-3 prostate = system: PC-3 prostate
SR leukemia = system: SR leukemia
SK-MEL-28 melanoma = system: SK-MEL-28 melanoma
LOX IMVI melanoma = system: LOX IMVI melanoma
SNB-19 CNS = system: SNB-19 CNS
HOP-62 NSCLC = system: HOP-62 NSCLC
OVCAR-8 ovarian = system: OVCAR-8 ovarian
CAKI-1 renal = system: CAKI-1 renal
T-47D breast = system: T-47D breast
DU-145 prostate = system: DU-145 prostate
IGROV1 ovarian = system: IGROV1 ovarian
NCI-H522 lung = system: NCI-H522 lung
SNB-75 CNS = system: SNB-75 CNS

Measured: TGI

O=C(/C=C/c1ccc(-c2ccccc2[N+](=O)[O-])o1)NCc1ccc(C(=O)NCCc2ccccc2)cc1
> 100 µM: MALME-3M melanoma | MCF7 breast | HCT-15 colon | BT-549 breast | A549 NSCLC | UACC-257 melanoma | SN12C renal | COLO 205 colon | SK-MEL-2 melanoma | HS 578T breast | EKVX NSCLC | U251 CNS | M14 melanoma | HCT-116 colon | MDA-MB-231 breast | KM12 colon | SF-295 CNS | OVCAR-5 ovarian | HT29 colon | SF-268 CNS | TK-10 renal | SK-OV-3 ovarian | OVCAR-4 ovarian | SK-MEL-5 melanoma | UACC-62 melanoma | RXF 393 renal | MOLT-4 leukemia | SF-539 CNS | NCI/ADR-RES ovarian | 786-0 renal | HOP-92 NSCLC | OVCAR-3 ovarian | NCI-H226 lung | HCC-2998 colon | RPMI-8226 leukemia | ACHN renal | SW-620 colon | MDA-MB-435 | NCI-H23 lung | NCI-H460 lung | A498 renal | UO-31 renal | K-562 leukemia | PC-3 prostate | SR leukemia | SK-MEL-28 melanoma | LOX IMVI melanoma | SNB-19 CNS | HOP-62 NSCLC | OVCAR-8 ovarian | CAKI-1 renal | T-47D breast | DU-145 prostate | IGROV1 ovarian | NCI-H522 lung | SNB-75 CNS
